≈ marks a conversion by molar mass, not a printed value.
Assays:
Type in all cases: cell-based
[1] = Cytotoxicity against HepG2 cells; details: human
[2] = tested on: P. falciparum 3D7 (chloroquine-sensitive); assay: Anti-malarial activity, P. falciparum 3D7 culture, 72 hour, DNA content by flow cytometry; details: Plasmodium falciparum, 3D7, 72 h, synchronized ring-stage parasites
Method: Numerous compounds were screened in cultures of the malaria parasite P. falciparum 3D7 (chloroquine-sensitive) and DD2 (chloroquine-resistant). The compounds were also screened for toxixcity against 3T3 cells, HepG2 cells, and in a hemolysis assay. In brief, P. falciparum parasites were cultured in RPMI 1640 (Invitrogen) supplemented with Albumax II (Invitrogen). For synchronization, schizont stage parasites were magnet purified using a SuperMACS™ II Cell Separation Unit (Miltenyi Biotech). For IC50 determinations, synchronized ring-stage parasites were plated at 0.5% parasitemia and 8% hematocrit in 96-well plates at a total volume of 50 μL. Serial dilutions of 2× concentration of the respective compound, ranging from 2.5 μM to 20 nM, were added to the wells to bring the total volume up to 100 μL and 4% hematocrit. Compounds were assayed for a 72 hour period, after which the cultures were fixed with a solution of 4% paraformaldehyde and 0.08% glutaraldhyde in PBS. The cells were then permeabilized with 0.25% Triton X-100, and SYTOX Green Nucleic Acid Stain (Invitrogen) in PBS was added to a final concentration of 5 μM. DNA content, as an indicator of parasitemia, was analyzed on an Accuri C6 Flow Cytometer with C-Sampler. IC50 curves were generated using GraphPad Prism (GraphPad Software).

[3] = in vitro
[4] = Cytotoxicity against 3T3 cells; details: mouse
[5] = HepG2 cells, read-out: Cytotoxicity HepG2 EC50
[6] = 3T3 cells, read-out: Cytotoxicity 3T3 EC50

IC50 [2]	EC50 [3]	SMILES	EC50 [1, 5]	EC50 [4, 6]	EC50 [1]	EC50 [4]	EC50 ([3]; hemolysis assay, read-out: Cytotoxicity Hemolysis EC50)
> 0.1 µM	> 1000 µg/mL	O=C(Nc1ccc(O[C@@H]2CCNC2)nc1)c1cc(C(=O)Nc2ccc(O[C@@H]3CCNC3)nc2)ncn1 [Compound 215]	> 1000 µM	> 1000 µM	–	–	–
0.182 µM	29 µg/mL (≈ 59.4 µM)	O=C(Nc1ccc(O[C@H]2CCNC2)cc1)c1cc(C(=O)Nc2ccc(O[C@H]3CCNC3)cc2)ncn1 [Compound 207]	819 µM	478 µM	–	–	–
0.085 µM	66 µg/mL (≈ 97.5 µM)	CC(=O)Nc1cc(C(F)(F)F)cc(NC(=O)c2cc(C(=O)Nc3cc(C(F)(F)F)cc(N)c3SCCN)ncn2)c1SCCN [Compound 203]	45 µM	15 µM	–	–	–
0.137 µM	4 µg/mL (≈ 6.62 µM)	NCCSc1ccc(NC(=O)c2cc(C(=O)Nc3ccc(SCCN)c(C(F)(F)F)c3)ncn2)cc1C(F)(F)F [Compound 188]	9 µM	1 µM	–	–	–
0.0771 µM	116 µg/mL (≈ 239 µM)	N=C(N)N1CCN(c2ccc(-c3cc(-c4ccc(N5CCN(C(=N)N)CC5)cc4)ncn3)cc2)CC1 [Compound 153]	453 µM	311 µM	–	–	–
0.07 µM	176 µg/mL (≈ 316 µM)	O=C(Nc1ccc(O[C@@H]2CCNC2)c(Cl)c1)c1cc(C(=O)Nc2ccc(O[C@@H]3CCNC3)c(Cl)c2)ncn1 [Compound 205]	307 µM	40 µM	–	–	–
0.179 µM	> 1000 µg/mL	N#Cc1cc(NC(=O)c2cc(C(=O)Nc3ccc(O[C@@H]4CCNC4)c(C#N)c3)ncn2)ccc1O[C@@H]1CCNC1 [Compound 206]	> 1000 µM	> 1000 µM	–	–	–
0.458 µM	> 1000 µg/mL	NCCc1cccc(NC(=O)c2cccc(C(=O)Nc3cccc(CCN)c3)n2)c1 [Compound 191]	> 1000 µM	> 1000 µM	–	–	–
0.273 µM	6 µg/mL (≈ 11.9 µM)	NCCCc1cccc(-c2cncc(-c3ccc(-c4cncc(-c5cccc(CCCN)c5)c4)s3)c2)c1 [Compound 232]	56 µM	37 µM	–	–	–
0.383 µM	5 µg/mL (≈ 6.76 µM)	COc1cc(SCCN)c(C(F)(F)F)cc1NC(=O)c1cc(C(=O)Nc2cc(C(F)(F)F)c(SCCN)cc2OC)nc(SCCN)n1 [Compound 183]	739 µM	694 µM	–	–	–
0.078 µM	223 µg/mL (≈ 254 µM)	NCCSc1c(NC(=O)c2cccc(F)c2)cc(C(F)(F)F)cc1NC(=O)c1cc(C(=O)Nc2cc(C(F)(F)F)cc(NC(=O)c3cccc(F)c3)c2SCCN)ncn1 [Compound 305]	904 µM	898 µM	–	–	–
0.925 µM	250 µg/mL (≈ 242 µM)	N=C(N)NCCCCC(=O)Nc1cc(C(F)(F)F)cc(NC(=O)c2cc(C(=O)Nc3cc(C(F)(F)F)cc(NC(=O)CCCCNC(=N)N)c3SCCNC(=O)CN)ncn2)c1SCCNC(=O)CN [Compound 160]	224 µM	66 µM	–	–	–
> 0.1 µM	> 1000 µg/mL	c1cc(-c2ccc(N3CCNCC3)nc2)cc(-c2ccc(N3CCNCC3)nc2)c1 [Compound 257]	220 µM	40 µM	–	–	–
0.154 µM	36 µg/mL (≈ 73.4 µM)	N=C(N)N1CCN(c2ccc(-c3ccc(-c4ccc(N5CCN(C(=N)N)CC5)nc4)s3)cn2)CC1 [Compound 254]	49 µM	32 µM	–	–	–
0.003 µM	24 µg/mL (≈ 59 µM)	N=C(N)NCCc1ccc(-c2ccc(-c3ccc(CCNC(=N)N)cc3)s2)cc1 [Compound 248]	54 µM	50 µM	–	–	–
0.069 µM	3 µg/mL (≈ 3.56 µM)	NCCSc1c(NC(=O)c2ccccc2)cc(C(F)(F)F)cc1NC(=O)c1cc(C(=O)Nc2cc(C(F)(F)F)cc(NC(=O)c3ccccc3)c2SCCN)ncn1 [Compound 304]	934 µM	934 µM	–	–	–
> 0.1 µM	2 µg/mL (≈ 3.87 µM)	CC1(C)c2cc(-c3cccc(CCNC(=N)N)c3)ccc2-c2ccc(-c3cccc(CCNC(=N)N)c3)cc21 [Compound 284]	28 µM	6 µM	–	–	–
0.041 µM	757 µg/mL (≈ 848 µM)	N#Cc1ccc(C(=O)Nc2cc(C(F)(F)F)cc(NC(=O)c3cc(C(=O)Nc4cc(C(F)(F)F)cc(NC(=O)c5ccc(C#N)cc5)c4SCCN)ncn3)c2SCCN)cc1 [Compound 307]	892 µM	846 µM	–	–	–
> 0.1 µM	793 µg/mL (≈ 792 µM)	NCCSc1c(NC(=O)c2cccc(Br)c2)cc(C(F)(F)F)cc1NC(=O)c1cc(C(=O)Nc2cc(C(F)(F)F)cc(NC(=O)c3cccc(Br)c3)c2SCCN)ncn1 [Compound 306]	814 µM	814 µM	–	–	–
0.773 µM	> 1000 µg/mL	NCCCOc1cc(OCCCN)cc(-c2ccc3c(c2)c2cc(-c4cc(OCCCN)cc(OCCCN)c4)ccc2n3CCCN)c1 [Compound 279]	885 µM	436 µM	–	–	–

IC50 [2]	EC50 [3]	SMILES	EC50 [1, 5]	EC50 [4, 6]	EC50 [1]	EC50 [4]	EC50 ([3]; hemolysis assay, read-out: Cytotoxicity Hemolysis EC50)
> 0.1 µM	> 1000 µg/mL	NCCCc1ccc(-c2ccc(CCCN)cc2)cc1 [Compound 318]	> 1000 µM	624 µM	–	–	–
0.187 µM	> 1000 µg/mL	N=C(N)NCCC#Cc1cncc(-c2cccc(-c3cncc(C#CCCNC(=N)N)c3)c2)c1 [Compound 137]	422 µM	272 µM	–	–	–
0.139 µM	12 µg/mL (≈ 24.8 µM)	O=C(Nc1ccc(C2CCNCC2)cc1)c1cc(C(=O)Nc2ccc(C3CCNCC3)cc2)ncn1 [Compound 208]	183 µM	122 µM	–	–	–
0.939 µM	–	N=C(N)NCCCCC(=O)Nc1cccc(NC(=O)c2cc(C(=O)Nc3cccc(NC(=O)CCCCNC(=N)N)c3SCCN)ncn2)c1SCCN [Compound 161]	676 µM	697 µM	–	–	–
1.11 µM	65 µg/mL (≈ 114 µM)	COc1cc(SCCN)c(C(F)(F)F)cc1NC(=O)Nc1ccc(SCCNC(=N)N)c(C(F)(F)F)c1 [Compound 276]	154 µM	42 µM	–	–	–
< 0.001 µM	48 µg/mL (≈ 98.6 µM)	O=C(Nc1ccc(N2CCNCC2)cc1)c1cc(C(=O)Nc2ccc(N3CCNCC3)cc2)ncn1 [Compound 201]	234 µM	137 µM	–	–	–
–	–	NCCSc1c(NC(=O)c2cc(C(=O)Nc3cc(C(F)(F)F)cc(NC(=O)c4ccc(Cl)cc4Cl)c3SCCN)ncn2)cc(C(F)(F)F)cc1NC(=O)c1ccc(Cl)cc1Cl [Compound 314]	827 µM	> 1000 µM	–	–	–
> 0.1 µM	–	CCn1c2ccc(N3CCN(C(=N)N)CC3)cc2c2cc(N3CCN(C(=N)N)CC3)ccc21 [Compound 294]	> 1000 µM	> 1000 µM	–	–	–
0.079 µM	–	COc1cccc(C(=O)Nc2cc(C(F)(F)F)cc(NC(=O)c3cc(C(=O)Nc4cc(C(F)(F)F)cc(NC(=O)c5cccc(OC)c5)c4SCCN)ncn3)c2SCCN)c1 [Compound 309]	> 1000 µM	> 1000 µM	–	–	–
–	22 µg/mL (≈ 29.7 µM)	NCCSc1c(N)cc(C(F)(F)F)cc1NC(=O)c1cc(C(=O)Nc2cc(C(F)(F)F)cc(NC(=O)c3cccnc3)c2SCCN)ncn1 [Compound 316]	41 µM	33 µM	–	–	–
–	–	COc1cc(OC)c(C(=O)Nc2cc(C(F)(F)F)cc(NC(=O)c3cccc(C#N)c3)c2SCCN)cc1C(=O)Nc1cc(C(F)(F)F)cc(NC(=O)c2cccc(C#N)c2)c1SCCN [Compound 300]	848 µM	848 µM	–	–	–
–	–	N=C(N)N1CC=C(c2ccc(NC(=O)c3cc(C(=O)Nc4ccc(C5=CCN(C(=N)N)CC5)cc4)ncn3)cc2)CC1 [Compound 219]	> 1000 µM	919 µM	–	–	–
–	14 µg/mL (≈ 17.5 µM)	COc1ccc(C(=O)Nc2cc(C(F)(F)F)cc(NC(=O)c3cc(C(=O)Nc4cc(C(F)(F)F)cc(N)c4SCCN)ncn3)c2SCCN)cc1OC [Compound 313]	545 µM	92 µM	–	–	–
–	–	O=S(=O)(c1ccc(Oc2cc(NC3CCNCC3)cc(C(F)(F)F)c2)cc1)c1ccc(Oc2cc(NC3CCNCC3)cc(C(F)(F)F)c2)cc1 [Compound 163]	98 µM	60 µM	–	–	–
0.43 µM	–	N=C(N)NCCCCCC(=O)Nc1cccc(-c2cc(-c3ccc(NC(=O)CCCCNC(=N)N)cc3)nc(-c3ccccc3)n2)c1 [Compound 139]	23 µM	36 µM	–	–	–
–	6 µg/mL (≈ 6.23 µM)	COc1ccc(C(=O)Nc2cc(C(F)(F)F)cc(NC(=O)c3cc(C(=O)Nc4cc(C(F)(F)F)cc(NC(=O)c5ccc(OC)c(OC)c5)c4SCCN)ncn3)c2SCCN)cc1OC [Compound 312]	> 1000 µM	> 10000 µM	–	–	–
> 0.1 µM	–	CN1CCN(c2ccc(-c3cc(-c4ccc(N5CCN(C)CC5)cc4)ncn3)cc2)CC1 [Compound 278]	> 1000 µM	> 1000 µM	–	–	–
0.088 µM	–	N=C(N)N1CCN(c2ccc3sc4ccc(N5CCN(C(=N)N)CC5)cc4c3c2)CC1 [Compound 292]	> 1000 µM	710 µM	–	–	–
–	–	NCCCn1c2ccc(C3=CCNCC3)cc2c2cc(C3=CCNCC3)ccc21 [Compound 288]	–	–	> 1000 µM	> 1000 µM	> 1000 µg/mL
> 0.1 µM	–	CN1CCN(c2ccc(NC(=O)c3cc(C(=O)Nc4ccc(N5CCN(C)CC5)cc4)ncn3)cc2)CC1 [Compound 212]	> 1000 µM	> 1000 µM	–	–	–

SMILES	IC50 [2]	EC50 [3]	EC50 [1, 5]	EC50 [4, 6]	EC50 [1]	EC50 [4]	EC50 ([3]; hemolysis assay, read-out: Cytotoxicity Hemolysis EC50)
N=C(N)NCCCn1c2ccc(C3=CCNCC3)cc2c2cc(C3=CCNCC3)ccc21 [Compound 290]	> 0.1 µM	–	–	–	> 1000 µM	> 1000 µM	–
